From patent US9724537B2, “Abnormal electrical conduction blocking apparatus using photodynamic therapy (PDT)” (Keio University, priority 2006, dated 2017)

Test: Pharmacokinetics of talaporfin sodium, rat plasma
Assay type: in vivo
Conditions: intravenous
Description: FIG. 45 is a graph showing changes in plasma concentrations after intravenous injection to rats at various doses (10, 5, 2, 1 mg/kg) and to humans at 1 mg/kg over time, using data in pharmacology studies and clinical studies with talaporfin sodium. In rats, the average of the mean plasma concentrations measured at 47 min, which was the average of the half-lives from 2 to 60 min after intravenous injection at a dose of 10 mg/kg, and at 5 min was used as true values, and concentration changes were calculated until 60 min. Furthermore, a straight line was drawn between the value at 60 min and the value at 120 min calculated using the average of the plasma concentrations measured at 9.6 h, which was the average of the half-lives from 2 to 24 h after intravenous injection, and at 24 h as a true value. Changes at each dose were calculated assuming that the plasma concentration changed in proportion to the dose.

C=Cc1c(C)c2cc3nc(c(CC(=O)N[C@@H](CC(=O)O)C(=O)O)c4[nH]c(cc5nc(cc1[nH]2)C(C)=C5CC)c(C)c4C(=O)O)[C@@H](CCC(=O)O)[C@@H]3C [talaporfin sodium, mono-L-aspartyl chlorine 6]
concentration at 30 min (conditions of Experiment 3 (2 mg/kg, interval 30 min)): 24000 ng/mL | concentration at 60 min (conditions of Experiment 4 (2 mg/kg, interval 60 min)): 16000 ng/mL
